Experimental data as given in patent US8053585B2, “Protecting group for carboxylic acids that can be photolyzed by visible light” (Cornell Research Foundation, Inc., priority 2006, dated 2011).
Entries after “also recorded” stand apart in the source; their conditions may differ.

Target: T1, α1-subunit of the human glycine receptor (Homo sapiens, UniProt P23415)
T1 construct: expressed in transfected cells; host or cells: HEK 293 cells, transiently transfected (Polyfect), co-transfected with GFP plasmid as marker; cDNA from Prof; H. Betz
T1 sequence (P23415 29-457): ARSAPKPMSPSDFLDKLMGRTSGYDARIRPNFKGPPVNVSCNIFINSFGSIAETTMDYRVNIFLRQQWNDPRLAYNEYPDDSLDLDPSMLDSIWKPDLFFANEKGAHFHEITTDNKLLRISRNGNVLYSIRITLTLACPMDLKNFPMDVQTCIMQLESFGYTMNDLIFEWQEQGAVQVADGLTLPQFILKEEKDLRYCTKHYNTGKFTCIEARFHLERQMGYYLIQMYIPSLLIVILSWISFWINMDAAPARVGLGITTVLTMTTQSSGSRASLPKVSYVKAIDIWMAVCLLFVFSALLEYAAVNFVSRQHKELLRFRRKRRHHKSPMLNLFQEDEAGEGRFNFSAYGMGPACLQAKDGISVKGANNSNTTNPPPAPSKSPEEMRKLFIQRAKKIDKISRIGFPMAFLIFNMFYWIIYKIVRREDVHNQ
Experiment: Whole-cell current recording with cell-flow method, HEK 293 cells expressing glycine receptor
Format: cell-based
From the text: In whole-cell current recording experiments with DECM-caged glutamate, HEK 293 cells stably transfected with cDNA encoding the GluR6 were used. In whole-cell current recording experiments with DECM-caged glycine, HEK 293 cells were transiently transfected with the cDNA of the α1-subunit of the human glycine receptor by using the Polyfect™ transfection reagent (Qiagen GmbH, D-40724, Hilden, Germany). The cDNA of the α1-subunit was kindly provided by Professor H. Betz (Max-Plank-Institute for brain Research, Frankfurt, Germany). The cells were co-transfected with cDNA encoding the green fluorescent protein (pGreen Lantern plasmid, Life Technologies, Gaitherberg, Md.) to detect transfected cells (Chalfie et al., “Green Fluorescent Protein as a Marker for Gene Expression,” Science 263:802-805 (1994), which is hereby incorporated by reference in its entirety).
The cells were used for electrophysiological experiments between 24 and 72 h after each passage. Whole-cell currents evoked by glutamate or glycine (100 μM) were recorded using the whole-cell configuration (Hamill et al., “Improved Patch-Clamp Techniques for High-Resolution Current Recording From Cells and Cell-Free Membrane Patches,” Pfluegers Arch 391:85-100 (1981), which is hereby incorporated by reference in its entirety) at room temperature, −60 mV, and pH 7.4. […]

SMILES: CCN(CC)c1ccc2c(COC(=O)CN)cc(=O)oc2c1 [DECM-caged glycine, (7-N,N-Diethylaminocoumarin-4-yl)-methyl-glycine-trifluoroacetate]
- whole-cell current evoked by 100 μM glycine, presence vs absence of compound (2 mM DECM-caged glycine (FIG. 10 legend), −60 mV, pH 7.4, 22° C.): does not inhibit
- biological activity at glycine receptors (inhibition or activation) (HEK293 cells expressing glycine receptors): biologically inert; also recorded: neither DECM-caged glycine nor its byproducts inhibited or activated the glycine receptors
